{"source": "patent US10441663B2", "about": "“Methods for treating cancer” (Bicycle Therapeutics Limited, priority 2016, dated 2019)", "system": "HT-29 xenograft", "experiment": "In vivo efficacy of BT1718 in HT-29 xenograft", "design": "species or system Mus Musculus; key to Best response at 10 mg/kg: CR complete response; PR partial response", "experimental": "The objective of this study was to evaluate the in vivo anti-tumor efficacy of BT1718in treatment of HT1080, NCI-H292, NCI-H1975, MDA-MB-231, HCC1806, RPMI2650, HCT-15, HT-29 and SNU-16 xenograft in BALB/c nude mice.\nThe HT1080, NCI-H292, NCI-H1975, MDA-MB-231, HCC1806, RPMI2650, HCT-15, HT-29 and SNU-16 tumor cells were maintained in vitro as a monolayer culture in medium supplemented with 10% heat inactivated fetal bovine serum at 37° C. in an […]. The tumor cells will be routinely subcultured twice weekly by trypsin-EDTA treatment. The cells growing in an exponential growth phase will be harvested and counted for tumor inoculation.\nMouse was inoculated subcutaneously at the right flank with tumor cells for tumor development. The animals were randomized and treatment was started when the average tumor reaches certain volume for the efficacy study, the inoculating cell amounts and starting tumor size were shown as below in Table 9. The test article administration and the animal numbers in each group were shown in the experimental design in Table 10.\nAll the procedures related to animal handling, care and the treatment in the study were performed according to the guidelines of the Association for Assessment and Accreditation of Laboratory Animal Care (AAALAC). At the time of routine monitoring, the animals were daily checked for any effects of tumor growth and treatments on normal behavior such as mobility, food and water consumption (by looking only), body weight gain/loss (body weights were measured every day), eye/hair matting and any other abnormal effect as stated in the protocol. Death and observed clinical signs were recorded on the basis of the numbers of animals within each subset.\nThe major endpoint was to see if the tumor growth could be delayed or mice could be cured. Tumor size was measured three times weekly in two dimensions using a caliper, and the volume was expressed in mm^3 using the formula: V=0.5 a×b^2 where a and b are the long and short diameters of the tumor, respectively. The tumor size was then used for calculations of T/C value. The T/C value (in percent) is an indication of antitumor effectiveness; T and C are the mean volumes of the treated and control groups, respectively, on a given day.\nTGI was calculated for each group using the formula: TGI (%)=[1−(Ti−T0)/(Vi−V0)]×100; Ti is the average tumor volume of a treatment group on a given day, T0 is the average tumor volume of the treatment group on the day of treatment start, Vi is the average tumor volume of the vehicle control group on the same day with Ti, and V0 is the average tumor volume of the vehicle group on the day of treatment start.\nSummary statistics, including mean and the standard error of the mean (SEM), are provided for the tumor volume of each group at each time point.\nStatistical analysis of difference in tumor volume among the groups was conducted on the data obtained at the best therapeutic time point after the final dose.\nA one-way ANOVA was performed to compare tumor volume among groups, and when a significant F-statistics (a ratio of treatment variance to the error variance) was obtained, comparisons between groups were carried out with Games-Howell test. All data were analyzed using Prism. P<0.05 was considered to be statistically significant.", "note": "*1 amine or outer side, *2 acyl side, *3 side chain or, on linkers, in order; H or OH if unused. Where a SMILES comes first, the peptide text is derived from it. Bridges are numbered along the chain shown (N, C = ends). [ ]: non-standard residue; d: D form. The star is where a group is joined. X1 = COc1cc2cc(c1Cl)N(C)C(=O)C[C@H](OC(=O)[C@H](C)N(C)C(=O)CCSSC(C)CCC(=O)*)[C@]1(C)O[C@H]1[C@H](C)[C@@H]1C[C@@](O)(NC(=O)O1)[C@H](OC)/C=C/C=C(\\C)C2; 1Nal = N[C@@H](Cc1cccc2ccccc12)C(=O)O; TBMB = c1c(C[*:1])cc(C[*:3])cc1C[*:2]; Tle = CC(C)(C)[C@H](N)C(=O)O; βAla = NCCC(=O)O; Sar = CNCC(=O)O"}
{"smiles": "COc1cc2cc(c1Cl)N(C)C(=O)C[C@H](OC(=O)[C@H](C)N(C)C(=O)CCSSC(C)CCC(=O)NCCC(=O)N(C)CC(=O)N(C)CC(=O)N(C)CC(=O)N(C)CC(=O)N(C)CC(=O)N(C)CC(=O)N(C)CC(=O)N(C)CC(=O)N(C)CC(=O)N(C)CC(=O)N[C@@H](C)C(=O)N[C@H]1CSCc3cc4cc(c3)CSC[C@H](NC(=O)[C@@H](C)NC(=O)[C@H](Cc3cccc5ccccc35)NC(=O)[C@H](CCC(=O)O)NC(=O)[C@H](CC(N)=O)NC(=O)[C@@H](C)NC1=O)C(=O)N[C@@H](CCC(=O)O)C(=O)N[C@@H](CC(=O)O)C(=O)N[C@@H](Cc1ccccc1)C(=O)N[C@@H](Cc1ccc(O)cc1)C(=O)N[C@@H](CC(=O)O)C(=O)N[C@@H](C(C)(C)C)C(=O)N[C@H](C(N)=O)CSC4)[C@]1(C)O[C@H]1[C@H](C)[C@@H]1C[C@@](O)(NC(=O)O1)[C@H](OC)/C=C/C=C(\\C)C2", "note": "(stereo partly drawn) [BT1718] ({X1-βAla}-[Sar][Sar][Sar][Sar][Sar][Sar][Sar][Sar][Sar][Sar]AC[dA]NE[1Nal][dA]CEDFYD[Tle]C-NH2; linker 12-18-25 via TBMB (inferred))", "values": [{"measurement": "tumor response", "setting": "10 mg/kg biw", "value": "significant tumor inhibition effect, but didn't cause tumor regression"}, {"measurement": "Body Weight", "setting": "1 mpk biw, day 0", "value": "23.0 ± 0.2", "unit": "g"}, {"measurement": "Tumor Volume", "setting": "1 mpk biw, day 0", "value": "160 ± 27", "unit": "mm^3"}, {"measurement": "Body Weight", "setting": "1 mpk biw, day 2", "value": "22.8 ± 0.2", "unit": "g"}, {"measurement": "Tumor Volume", "setting": "1 mpk biw, day 2", "value": "189 ± 18", "unit": "mm^3"}, {"measurement": "Body Weight", "setting": "1 mpk biw, day 4", "value": "22.3 ± 0.5", "unit": "g"}, {"measurement": "Tumor Volume", "setting": "1 mpk biw, day 4", "value": "203 ± 13", "unit": "mm^3"}, {"measurement": "Body Weight", "setting": "1 mpk biw, day 6", "value": "22.3 ± 0.5", "unit": "g"}, {"measurement": "Tumor Volume", "setting": "1 mpk biw, day 6", "value": "260 ± 18", "unit": "mm^3"}, {"measurement": "Body Weight", "setting": "1 mpk biw, day 8", "value": "22.3 ± 0.4", "unit": "g"}, {"measurement": "Tumor Volume", "setting": "1 mpk biw, day 8", "value": "273 ± 35", "unit": "mm^3"}, {"measurement": "Body Weight", "setting": "1 mpk biw, day 11", "value": "22.4 ± 0.7", "unit": "g"}, {"measurement": "Tumor Volume", "setting": "1 mpk biw, day 11", "value": "453 ± 45", "unit": "mm^3"}, {"measurement": "Body Weight", "setting": "1 mpk biw, day 13", "value": "22.3 ± 0.7", "unit": "g"}, {"measurement": "Tumor Volume", "setting": "1 mpk biw, day 13", "value": "533 ± 43", "unit": "mm^3"}, {"measurement": "Body Weight", "setting": "3 mpk biw, day 0", "value": "22.2 ± 0.2", "unit": "g"}, {"measurement": "Tumor Volume", "setting": "3 mpk biw, day 0", "value": "159 ± 36", "unit": "mm^3"}, {"measurement": "Body Weight", "setting": "3 mpk biw, day 2", "value": "22.1 ± 0.4", "unit": "g"}, {"measurement": "Tumor Volume", "setting": "3 mpk biw, day 2", "value": "178 ± 41", "unit": "mm^3"}, {"measurement": "Body Weight", "setting": "3 mpk biw, day 4", "value": "22.0 ± 0.5", "unit": "g"}, {"measurement": "Tumor Volume", "setting": "3 mpk biw, day 4", "value": "214 ± 51", "unit": "mm^3"}, {"measurement": "Body Weight", "setting": "3 mpk biw, day 6", "value": "22.4 ± 0.6", "unit": "g"}, {"measurement": "Tumor Volume", "setting": "3 mpk biw, day 6", "value": "268 ± 70", "unit": "mm^3"}, {"measurement": "Body Weight", "setting": "3 mpk biw, day 8", "value": "22.6 ± 0.6", "unit": "g"}, {"measurement": "Tumor Volume", "setting": "3 mpk biw, day 8", "value": "297 ± 87", "unit": "mm^3"}, {"measurement": "Body Weight", "setting": "3 mpk biw, day 11", "value": "22.0 ± 0.4", "unit": "g"}, {"measurement": "Tumor Volume", "setting": "3 mpk biw, day 11", "value": "472 ± 129", "unit": "mm^3"}, {"measurement": "Body Weight", "setting": "3 mpk biw, day 13", "value": "22.2 ± 0.3", "unit": "g"}, {"measurement": "Tumor Volume", "setting": "3 mpk biw, day 13", "value": "616 ± 145", "unit": "mm^3"}, {"measurement": "Body Weight", "setting": "10 mpk biw, day 0", "value": "24.6 ± 1.2", "unit": "g"}, {"measurement": "Tumor Volume", "setting": "10 mpk biw, day 0", "value": "164 ± 32", "unit": "mm^3"}, {"measurement": "Body Weight", "setting": "10 mpk biw, day 2", "value": "23.6 ± 1.2", "unit": "g"}, {"measurement": "Tumor Volume", "setting": "10 mpk biw, day 2", "value": "177 ± 28", "unit": "mm^3"}, {"measurement": "Body Weight", "setting": "10 mpk biw, day 4", "value": "22.1 ± 1.5", "unit": "g"}, {"measurement": "Tumor Volume", "setting": "10 mpk biw, day 4", "value": "195 ± 36", "unit": "mm^3"}, {"measurement": "Body Weight", "setting": "10 mpk biw, day 6", "value": "22.9 ± 1.5", "unit": "g"}, {"measurement": "Tumor Volume", "setting": "10 mpk biw, day 6", "value": "232 ± 54", "unit": "mm^3"}, {"measurement": "Body Weight", "setting": "10 mpk biw, day 8", "value": "21.2 ± 1.2", "unit": "g"}, {"measurement": "Tumor Volume", "setting": "10 mpk biw, day 8", "value": "198 ± 44", "unit": "mm^3"}, {"measurement": "Body Weight", "setting": "10 mpk biw, day 11", "value": "21.2 ± 1.7", "unit": "g"}, {"measurement": "Tumor Volume", "setting": "10 mpk biw, day 11", "value": "182 ± 46", "unit": "mm^3"}, {"measurement": "Body Weight", "setting": "10 mpk biw, day 13", "value": "21.7 ± 1.0", "unit": "g"}, {"measurement": "Tumor Volume", "setting": "10 mpk biw, day 13", "value": "146 ± 32", "unit": "mm^3"}, {"measurement": "Best response at 10 mg/kg", "setting": "HT-29, 10 mg/kg", "value": "PR"}, {"measurement": "TGI", "setting": "HT-29, 1 mpk, biw, day 14", "value": 24.0, "unit": "%"}, {"measurement": "Tumor Volume", "setting": "HT-29, 1 mpk, biw, day 14", "value": "533 ± 43", "unit": "mm^3"}, {"measurement": "TGI", "setting": "HT-29, 3 mpk, biw, day 14", "value": 6.8, "unit": "%"}, {"measurement": "Tumor Volume", "setting": "HT-29, 3 mpk, biw, day 14", "value": "616 ± 145", "unit": "mm^3"}, {"measurement": "TGI", "setting": "HT-29, 10 mpk, biw, day 14", "value": 103.6, "unit": "%"}, {"measurement": "Tumor Volume", "setting": "HT-29, 10 mpk, biw, day 14", "value": "146 ± 32", "unit": "mm^3"}, {"measurement": "Minimally Effective Dose IV BIW", "setting": "HT-29, dose leading to tumor-stasis", "value": 10, "unit": "mg/kg"}]}
